# Where two headings read alike, the source gives them in different places.
# Test system: Vcap cells (androgen receptor (+) prostate cancer cells)
# Assay: CTG cell proliferation assay (CellTiter-Glo)
# Details: for viability at 0.1 µM / viability at 1 µM / viability at 10 µM: Homo sapiens, VCaP, 120 h; for Cell survival rate: notes of Table 9: 1.0 μM tested compound in combination with 1.0 μM Enzalutamide
# [1] = read-out: Survival rate of Vcap cells, Table 5, tested compound alone, 0.1 μM
# [2] = read-out: Survival rate of Vcap cells, Table 5, tested compound alone, 1.0 μM
# [3] = read-out: Survival rate of Vcap cells, Table 5, tested compound alone, 10 μM
# [4] = Table 5, tested compound 0.1 μM in combination with 1 μM ODM-201
# [5] = Table 5, tested compound 1.0 μM in combination with 1 μM ODM-201
# [6] = Table 5, tested compound 10 μM in combination with 1 μM ODM-201
# [7] = Table 5, tested compound alone, 1.0 μM
# [8] = read-out: Survival rate of Vcap cells, Table 10, tested compound alone, 0.1 μM
# [9] = read-out: Survival rate of Vcap cells, Table 10, tested compound alone, 1.0 μM
# [10] = read-out: Survival rate of Vcap cells, Table 10, tested compound alone, 10 μM
# [11] = Table 10, tested compound 0.1 μM in combination with 1 μM B001
# [12] = Table 10, tested compound 1.0 μM in combination with 1 μM B001
# [13] = Table 10, tested compound 10 μM in combination with 1 μM B001
# [14] = read-out: Survival rate of Vcap cells, Table 9, tested compound alone, 0.1 μM
# [15] = read-out: Survival rate of Vcap cells, Table 9, tested compound alone, 1.0 μM
# [16] = read-out: Survival rate of Vcap cells, Table 9, tested compound alone, 10 μM
# [17] = Table 9, tested compound 0.1 μM in combination with 1 μM ARN-509
# [18] = Table 9, tested compound 0.1 μM in combination with 1 μM Enzalutamide
# [19] = Table 9, tested compound 1.0 μM in combination with 1 μM ARN-509
# [20] = Table 9, tested compound 1.0 μM in combination with 1 μM Enzalutamide
# [21] = Table 9, tested compound 10 μM in combination with 1 μM ARN-509
# [22] = Table 9, tested compound 10 μM in combination with 1 μM Enzalutamide
# [23] = read-out: Survival rate of Vcap cells, Table 4, tested compound alone, 0.1 μM
# [24] = read-out: Survival rate of Vcap cells, Table 4, tested compound alone, 1 μM
# [25] = read-out: Survival rate of Vcap cells, Table 4, tested compound alone, 10 μM
# [26] = Table 4, tested compound alone, 1 μM
# [27] = read-out: Survival rate of Vcap cells, Table 3, tested compound alone, 0.1 μM
# [28] = read-out: Survival rate of Vcap cells, Table 3, tested compound alone, 1.0 μM
# [29] = read-out: Survival rate of Vcap cells, Table 3, tested compound alone, 10 μM
# [30] = Table 3, tested compound 0.1 μM in combination with 1 μM ARN-509
# [31] = Table 3, tested compound 0.1 μM in combination with 1 μM Enzalutamide
# [32] = Table 3, tested compound 1.0 μM in combination with 1 μM ARN-509
# [33] = Table 3, tested compound 1.0 μM in combination with 1 μM Enzalutamide
# [34] = Table 3, tested compound 10 μM in combination with 1 μM ARN-509
# [35] = Table 3, tested compound 10 μM in combination with 1 μM Enzalutamide
# [36] = Table 3, tested compound alone, 1.0 μM
# [37] = Table 4, tested compound 0.1 μM in combination with 1 μM Abiraterone acetate
# [38] = Table 4, tested compound 0.1 μM in combination with 1 μM Galeterone
# [39] = Table 4, tested compound 1 μM in combination with 1 μM Abiraterone acetate
# [40] = Table 4, tested compound 1 μM in combination with 1 μM Galeterone
# [41] = Table 4, tested compound 10 μM in combination with 1 μM Abiraterone acetate
# [42] = Table 4, tested compound 10 μM in combination with 1 μM Galeterone
# [43] = Table 10, tested compound 0.1 μM in combination with 1 μM K001
# [44] = Table 10, tested compound 1.0 μM in combination with 1 μM K001
# [45] = Table 10, tested compound 10 μM in combination with 1 μM K001
# Protocol: In vitro test of the inhibition effect of the compound in combination with androgen receptor pathway modulators and the like on the prostate cancer cell proliferation.
# The tested compounds were used alone or in combination with other androgen receptor pathway modulators respectively. […] After that, 100 μl of CellTiter-Glo® cell viability assay reagent (Promega, catalogue number G7570) was added to each well and mixed well on a vibrator for 10 minutes to induce cell lysis. The 96-well plate was placed at room temperature for 10 minutes, so as to stabilize its luminescence signal. A white bottom membrane was pasted on the bottom of the plate and the plate was tested using EnSpire.
smiles,measurement,setting,value
Nc1cccc2c1C(=O)N(C1CCC(=O)NC1=O)C2=O (stereo not drawn) [F001],viability at 0.1 µM,[1],79.7%
same,viability at 1 µM,[2],59.9%
same,viability at 10 µM,[3],55.7%
same,Survival rate of Vcap cells,[4],49.4%
same,Survival rate of Vcap cells,[5],40.9%
same,Survival rate of Vcap cells,[6],37.3%
same,Survival rate of Vcap cells,[7],59.9%
"C[C@](O)(COc1ccc(C#N)cc1)C(=O)Nc1ccc(C#N)c(C(F)(F)F)c1 [MK-2866, reference compound]",viability at 0.1 µM,[8],76.5%
same,viability at 1 µM,[9],77.4%
same,viability at 10 µM,[10],69.4%
same,Survival rate of Vcap cells,[11],64.8%
same,Survival rate of Vcap cells,[12],65.6%
same,Survival rate of Vcap cells,[13],57.8%
Nc1cccc2c1CN([C@H]1CCC(=O)NC1=O)C2=O [B002],viability at 0.1 µM,[14],85.6%
same,viability at 1 µM,[15],79.8%
same,viability at 10 µM,[16],75.9%
same,Survival rate of Vcap cells,[17],52.5%
same,Survival rate of Vcap cells,[18],53.9%
same,Survival rate of Vcap cells,[19],44.7%
same,Survival rate of Vcap cells,[20],44.7%
same,Survival rate of Vcap cells,[21],44.3%
same,Survival rate of Vcap cells,[22],43.1%
same,Cell survival rate,,44.7%
Nc1cccc2c1CN([C@@H]1CCC(=O)NC1=O)C2=O [B003],viability at 0.1 µM,[14],83.7%
same,viability at 1 µM,[15],81.3%
same,viability at 10 µM,[16],80.4%
same,Survival rate of Vcap cells,[17],54.0%
same,Survival rate of Vcap cells,[19],46.5%
same,Survival rate of Vcap cells,[20],45.4%
same,Survival rate of Vcap cells,[21],42.4%
same,Survival rate of Vcap cells,[22],44.2%
"C[C@]12CC[C@H](O)CC1=CC[C@@H]1[C@@H]2CC[C@]2(C)C(c3cccnc3)=CC[C@@H]12 [Abiraterone, reference compound]",viability at 0.1 µM,[8],98.5%
same,viability at 1 µM,[9],92.4%
same,viability at 10 µM,[10],81.9%
same,Survival rate of Vcap cells,[11],78.9%
same,Survival rate of Vcap cells,[12],74.9%
same,Survival rate of Vcap cells,[13],66.3%
[2H][C@]1(N2Cc3c(N)cccc3C2=O)CCC(=O)NC1=O [B005],viability at 0.1 µM,[14],91.1%
same,viability at 1 µM,[15],85%
same,viability at 10 µM,[16],83.5%
same,Survival rate of Vcap cells,[17],53.4%
same,Survival rate of Vcap cells,[18],56.5%
same,Survival rate of Vcap cells,[19],47.6%
same,Survival rate of Vcap cells,[20],48.4%
same,Survival rate of Vcap cells,[21],46.2%
same,Survival rate of Vcap cells,[22],46.5%
same,Cell survival rate,,47.6%
"CC(=O)O[C@H]1CC[C@@]2(C)C(=CC[C@@H]3[C@@H]2CC[C@]2(C)C(c4cccnc4)=CC[C@@H]32)C1 [Abiraterone acetate, reference compound]",viability at 0.1 µM,[23],106%
same,viability at 1 µM,[24],91.7%
same,viability at 10 µM,[25],31.4%
same,viability at 0.1 µM,[8],96.1%
same,viability at 1 µM,[9],97%
same,viability at 10 µM,[10],60.5%
same,Survival rate of Vcap cells,[26],91.7%
same,Survival rate of Vcap cells,[11],79.8%
same,Survival rate of Vcap cells,[12],70.5%
same,Survival rate of Vcap cells,[13],66.9%
O=C1CCC(N2Cc3c(OCc4ccc(CN5CCOCC5)cc4)cccc3C2=O)C(=O)N1 (stereo not drawn) [D107],viability at 0.1 µM,[27],85.3%
same,viability at 1 µM,[28],77.2%
same,viability at 10 µM,[29],69.3%
same,viability at 0.1 µM,[23],85.3%
same,viability at 1 µM,[24],77.2%
same,viability at 10 µM,[25],69.3%
same,Survival rate of Vcap cells,[30],37.0%
same,Survival rate of Vcap cells,[31],37.3%
same,Survival rate of Vcap cells,[32],36.3%
same,Survival rate of Vcap cells,[33],35.0%
same,Survival rate of Vcap cells,[34],34.2%
same,Survival rate of Vcap cells,[35],32.3%
same,Survival rate of Vcap cells,[36],77.2%
same,Survival rate of Vcap cells,[37],66.0%
same,Survival rate of Vcap cells,[38],43.9%
same,Survival rate of Vcap cells,[39],61.7%
same,Survival rate of Vcap cells,[40],42.4%
same,Survival rate of Vcap cells,[41],59.6%
same,Survival rate of Vcap cells,[42],40.0%
same,Survival rate of Vcap cells,[26],77.2%
[2H]C1(N2Cc3c(N)cccc3C2=O)CCC(=O)NC1=O (stereo not drawn) [B004],viability at 0.1 µM,[14],94.1%
same,viability at 1 µM,[15],88.4%
same,viability at 10 µM,[16],88%
same,Survival rate of Vcap cells,[17],59.1%
same,Survival rate of Vcap cells,[18],60.4%
same,Survival rate of Vcap cells,[19],51.2%
same,Survival rate of Vcap cells,[20],50.8%
same,Survival rate of Vcap cells,[21],48.0%
same,Survival rate of Vcap cells,[22],51.1%
same,Cell survival rate,,51.2%
[2H][C@@]1(N2Cc3c(N)cccc3C2=O)CCC(=O)NC1=O [B006],viability at 0.1 µM,[14],91.7%
same,viability at 1 µM,[15],89.7%
same,viability at 10 µM,[16],85.7%
same,Survival rate of Vcap cells,[17],63.2%
same,Survival rate of Vcap cells,[18],61.2%
same,Survival rate of Vcap cells,[19],51.7%
same,Survival rate of Vcap cells,[20],50.5%
same,Survival rate of Vcap cells,[21],45.0%
same,Survival rate of Vcap cells,[22],48.3%
same,Cell survival rate,,51.7%
"CC(O)(CS(=O)(=O)c1ccc(F)cc1)C(=O)Nc1ccc(C#N)c(C(F)(F)F)c1 (stereo not drawn) [bicalutamide, reference compound]",viability at 0.1 µM,[8],99.2%
same,viability at 1 µM,[9],94%
same,viability at 10 µM,[10],92%
same,Survival rate of Vcap cells,[11],77.1%
same,Survival rate of Vcap cells,[43],78.7%
same,Survival rate of Vcap cells,[12],69.0%
same,Survival rate of Vcap cells,[44],64.1%
same,Survival rate of Vcap cells,[13],67.1%
same,Survival rate of Vcap cells,[45],61.5%
"C[C@]12C=CC(=O)C=C1CC[C@@H]1[C@@H]2C(=O)C[C@@]2(C)[C@H]1CC[C@]2(O)C(=O)CO [Prednisone, reference compound]",viability at 0.1 µM,[8],99.1%
same,viability at 1 µM,[9],99.7%
same,viability at 10 µM,[10],99.4%
same,Survival rate of Vcap cells,[11],87.6%
same,Survival rate of Vcap cells,[43],91.5%
same,Survival rate of Vcap cells,[12],78.7%
same,Survival rate of Vcap cells,[44],74.2%
same,Survival rate of Vcap cells,[13],73.8%
same,Survival rate of Vcap cells,[45],68.0%
O=C1CC[C@H](N2Cc3c(OCc4ccc(CN5CCOCC5)cc4)cccc3C2=O)C(=O)N1 [D108],viability at 0.1 µM,[1],73%
same,viability at 1 µM,[2],67.3%
same,viability at 10 µM,[3],58.5%
same,Survival rate of Vcap cells,[4],42.7%
same,Survival rate of Vcap cells,[5],40.1%
same,Survival rate of Vcap cells,[6],32.8%
same,Survival rate of Vcap cells,[7],67.3%
Cc1nc2cccc(N)c2c(=O)n1C1CCC(=O)NC1=O (stereo not drawn) [K001],viability at 0.1 µM,[27],85.1%
same,viability at 1 µM,[28],65.8%
same,viability at 10 µM,[29],61.4%
same,viability at 0.1 µM,[23],85.1%
same,viability at 1 µM,[24],65.8%
same,viability at 10 µM,[25],61.4%
same,viability at 0.1 µM,[1],79.2%
same,viability at 1 µM,[2],59.7%
same,viability at 10 µM,[3],51%
same,viability at 0.1 µM,[8],91.2%
same,viability at 1 µM,[9],73.8%
same,viability at 10 µM,[10],66.1%
same,Survival rate of Vcap cells,[30],43.6%
same,Survival rate of Vcap cells,[31],42.4%
same,Survival rate of Vcap cells,[32],36.0%
same,Survival rate of Vcap cells,[33],36.4%
same,Survival rate of Vcap cells,[34],33.5%
same,Survival rate of Vcap cells,[35],35.1%
same,Survival rate of Vcap cells,[36],65.8%
same,Survival rate of Vcap cells,[37],70.4%
same,Survival rate of Vcap cells,[38],49.1%
same,Survival rate of Vcap cells,[39],53.1%
same,Survival rate of Vcap cells,[40],41.3%
same,Survival rate of Vcap cells,[41],48.1%
same,Survival rate of Vcap cells,[42],39.4%
same,Survival rate of Vcap cells,[26],65.8%
same,Survival rate of Vcap cells,[4],53.5%
same,Survival rate of Vcap cells,[5],40.4%
same,Survival rate of Vcap cells,[6],35.2%
same,Survival rate of Vcap cells,[7],59.7%
"C[C@]12CC[C@H](O)CC1=CC[C@@H]1[C@@H]2CC[C@]2(C)C(n3cnc4ccccc43)=CC[C@@H]12 [Galeterone, reference compound]",Survival rate of Vcap cells,"Table 4, tested compound alone, 0.1 μM",95.9%
same,Survival rate of Vcap cells,[26],62.8%
same,Survival rate of Vcap cells,"Table 4, tested compound alone, 10 μM",19.3%
"CC(O)c1cc(C(=O)N[C@@H](C)Cn2ccc(-c3ccc(C#N)c(Cl)c3)n2)[nH]n1 (stereo partly drawn) [ODM-201, reference compound]",viability at 0.1 µM,[1],90.7%
same,viability at 1 µM,[2],69%
same,viability at 10 µM,[3],75.4%
same,Survival rate of Vcap cells,[7],69.0%
